In the CheMixHub viscosity set:

Assay: xn = mol fraction of the nth substance listed

CC(O)C(C)O (centres undefined) + O
viscosity [mPa·s]
Conditions	303.15 K	308.15 K	313.15 K	318.15 K	323.15 K
101 kPa, x1 = 0.01	0.943	0.842	0.759	0.69	0.632
101 kPa, x1 = 0.0199	1.108	0.982	0.877	0.792	0.719
101 kPa, x1 = 0.03	1.294	1.138	1.01	0.905	0.816
101 kPa, x1 = 0.0399	1.506	1.312	1.155	–	0.919
101 kPa, x1 = 0.0499	1.733	1.498	1.308	1.155	1.028
101 kPa, x1 = 0.0601	1.985	1.7	1.471	1.292	1.145
101 kPa, x1 = 0.0699	2.242	1.91	1.649	1.436	1.264
101 kPa, x1 = 0.08	2.53	2.135	1.826	1.586	1.39
101 kPa, x1 = 0.0899	2.79	2.345	1.998	1.724	1.503
101 kPa, x1 = 0.1	3.084	2.571	2.182	1.868	1.622
101.3 kPa, x1 = 0.1176	–	3.174	2.627	2.203	–
101.3 kPa, x1 = 0.2307	–	6.873	5.405	4.363	–
101.3 kPa, x1 = 0.3181	–	10.06	7.822	6.198	–
101.3 kPa, x1 = 0.4443	–	15.66	11.92	9.192	–
101.3 kPa, x1 = 0.5311	–	20.41	15.17	11.64	–
101.3 kPa, x1 = 0.6427	–	27.5	20.24	15.02	–
101.3 kPa, x1 = 0.8275	–	41.68	29.62	21.32	–
101.3 kPa, x2 = 0.3539	–	12.95	–	–	–

O=C(O)c1ccccc1C(=O)O + CCCO
viscosity [mPa·s]
Conditions	308.15 K	313.15 K	318.15 K	323.15 K
101 kPa, x1 = 0.02	–	1.632	–	–
101 kPa, x1 = 0.027	–	1.732	–	–
101 kPa, x1 = 0.0369	–	1.887	–	–
101.33 kPa, x1 = 0.02	1.78	1.632	1.457	1.302
101.33 kPa, x1 = 0.0369	2.133	1.887	1.672	1.488

CC(O)C(C)O (centres undefined) + C[N+](C)(C)CCO.[Cl-]
viscosity [mPa·s], 101.3 kPa
Conditions	303.15 K	308.15 K	313.15 K	318.15 K	323.15 K
x2 = 0.2	71.79	53.5	40.72	31.73	25.22
x2 = 0.25	84.88	63.93	48.73	38.16	30.43

O=Cc1ccccc1 + OCc1ccccc1
293.15 K, 100 kPa
Conditions	viscosity [mPa·s]
x2 = 0.1032	1.695
x2 = 0.2	1.882
x2 = 0.3007	2.114
x2 = 0.4023	2.322
x2 = 0.4989	2.633
x2 = 0.6013	3.114
x2 = 0.688	3.591
x2 = 0.8	4.366
x2 = 0.8984	5.395

CCCC[N+](CCCC)(CCCC)CCCC.[Cl-] + CSCC[C@H](N)C(=O)O
Conditions	viscosity [mPa·s]
323.15 K, 101 kPa, x1 = 0.9	529

C=C(C)C(=O)OCCCCCCC + C1CCCCC1
viscosity [mPa·s], 101 kPa
Conditions	x1 = 0.002	x1 = 0.005	x1 = 0.01	x1 = 0.02
303 K	0.8392	0.8401	0.8252	0.8456
313 K	0.6991	0.7083	0.7012	0.7219
323 K	0.6114	0.6127	0.6159	0.6244

Cc1ccc(C)cc1 + Cc1ccccc1
Conditions	viscosity [mPa·s]
293.15 K, 101.33 kPa, x2 = 0.1516	0.636
293.15 K, 101.33 kPa, x2 = 0.3137	0.624
293.15 K, 101.33 kPa, x2 = 0.6003	0.6
293.15 K, 101.33 kPa, x2 = 0.8519	0.588
298.15 K, 101 kPa, x1 = 0.1	0.5595
298.15 K, 101 kPa, x1 = 0.2	0.565
298.15 K, 101 kPa, x1 = 0.3	0.5703
298.15 K, 101 kPa, x1 = 0.4	0.5756
298.15 K, 101 kPa, x1 = 0.5	0.5807
298.15 K, 101 kPa, x1 = 0.6	0.5857
298.15 K, 101 kPa, x1 = 0.7	0.5907
298.15 K, 101 kPa, x1 = 0.8	0.5955
298.15 K, 101 kPa, x1 = 0.9	0.6001
303.15 K, 101.33 kPa, x2 = 0.1516	0.56
303.15 K, 101.33 kPa, x2 = 0.3137	0.547
303.15 K, 101.33 kPa, x2 = 0.6003	0.532
303.15 K, 101.33 kPa, x2 = 0.8519	0.526
313.15 K, 101.33 kPa, x2 = 0.1516	0.509
313.15 K, 101.33 kPa, x2 = 0.3137	0.5
313.15 K, 101.33 kPa, x2 = 0.6003	0.491
313.15 K, 101.33 kPa, x2 = 0.8519	0.47
323.15 K, 101.33 kPa, x2 = 0.1516	0.459
323.15 K, 101.33 kPa, x2 = 0.3137	0.45
323.15 K, 101.33 kPa, x2 = 0.6003	0.437
323.15 K, 101.33 kPa, x2 = 0.8519	0.423

Cc1ccc(C)cc1 + CCCO
viscosity [mPa·s], 100 kPa
Conditions	298.15 K	308.15 K
x2 = 0.0643	0.6146	0.5489
x2 = 0.1254	0.631	0.5619
x2 = 0.2254	0.6713	0.5956
x2 = 0.3547	0.7426	0.6389
x2 = 0.4703	0.8348	0.7071
x2 = 0.5743	0.9545	0.7925
x2 = 0.6683	1.058	0.9054
x2 = 0.7538	1.253	1.028
x2 = 0.8318	1.449	1.198
x2 = 0.9033	1.662	1.337
x2 = 0.9691	1.814	1.457

O=Cc1ccccc1 + CCCO
Conditions	viscosity [mPa·s]
308.15 K, 101 kPa, x2 = 0.8022	1.215

OCCOCCO + COCCO
viscosity [mPa·s], 101 kPa
Conditions	293.15 K	298.15 K	303.15 K
x2 = 0.063	32.91	25.61	18.57
x2 = 0.1046	29.55	23.08	16.7
x2 = 0.1548	25.97	20.37	14.71
x2 = 0.1955	23.41	18.4	13.26
x2 = 0.2599	19.9	15.69	11.28
x2 = 0.3032	17.82	14.1	10.11
x2 = 0.3425	16.13	12.78	9.154
x2 = 0.3978	14.02	11.13	7.954
x2 = 0.4463	12.38	9.856	7.03
x2 = 0.4981	10.82	8.633	6.143
x2 = 0.5488	9.459	7.565	5.383
x2 = 0.5957	8.321	6.686	4.755
x2 = 0.6523	7.085	5.718	4.079
x2 = 0.6987	6.176	5.003	3.59
x2 = 0.7511	5.269	4.232	3.094
x2 = 0.8021	4.393	3.612	2.67
x2 = 0.8546	3.602	2.998	2.276
x2 = 0.8964	3.013	2.551	1.995
x2 = 0.9423	2.414	2.084	1.714

Cc1ccc(C)cc1 + CCCCCO
293.15 K, 101.33 kPa
Conditions	viscosity [mPa·s]
x2 = 0.1458	0.727
x2 = 0.2275	0.792
x2 = 0.2722	0.836
x2 = 0.3455	0.925
x2 = 0.4093	1.022
x2 = 0.4819	1.164
x2 = 0.5534	1.356
x2 = 0.6142	1.543
x2 = 0.7185	1.973
x2 = 0.7687	2.232
x2 = 0.8498	2.747
x2 = 0.9425	3.494

C[N+](C)(C)CCO.[Cl-] + NCCO
101 kPa
Conditions	viscosity [mPa·s]
293.15 K, x1 = 0.091	40.5
293.15 K, x1 = 0.111	48.81
293.15 K, x1 = 0.143	51.72
298.15 K, x1 = 0.125	38.64
303.15 K, x1 = 0.125	30.08
308.15 K, x1 = 0.125	23.81
313.15 K, x1 = 0.091	16.33
313.15 K, x1 = 0.111	20.81
313.15 K, x1 = 0.125	19.3
313.15 K, x1 = 0.143	21.41
318.15 K, x1 = 0.125	15.79
323.15 K, x1 = 0.125	12.88

c1ccc(Nc2ccccc2)cc1 + Oc1ccccc1
viscosity [mPa·s], 101 kPa
Conditions	303.15 K	313.15 K	323.1 K
x1 = 0.21	–	–	3.825
x1 = 0.444	–	–	4.362
x1 = 0.683	–	–	5.01
x2 = 0.133	12.57	7.95	–
x2 = 0.2435	11.65	7.43	–
x2 = 0.3531	10.72	6.93	–
x2 = 0.4454	10.03	6.52	–
x2 = 0.5306	9.47	6.2	–
x2 = 0.6104	8.98	5.91	–
x2 = 0.6735	8.61	5.68	–
x2 = 0.7266	8.28	5.51	–
x2 = 0.7989	7.91	5.28	–
x2 = 0.8548	7.65	5.13	–
x2 = 0.908	7.42	4.98	–
x2 = 0.9541	7.255	4.845	–

CC(O)C(C)O (centres undefined) + CN1CCCC1=O
308.15 K, 101 kPa
Conditions	viscosity [mPa·s]
x1 = 0.0282	1.924
x1 = 0.0534	2.003
x1 = 0.1001	2.405
x1 = 0.1968	2.91
x1 = 0.295	3.344
x1 = 0.3939	4.159
x1 = 0.4746	5.033
x1 = 0.5881	7.256
x1 = 0.6924	8.758
x1 = 0.7916	13.58
x1 = 0.8948	23.29
x1 = 0.9431	32.45
x1 = 0.973	39.91

C=C(C)C(=O)OCCCCCCC + c1ccccc1
viscosity [mPa·s], 101 kPa
Conditions	x1 = 0.002	x1 = 0.004	x1 = 0.01	x1 = 0.02
303 K	0.5525	0.5621	0.5849	0.5828
313 K	0.4874	0.4915	0.5123	0.5115
323 K	0.4321	0.4362	0.4518	0.4535

CC(C)CCCC(C)CCCC(C)CCCCC(C)CCCC(C)CCCC(C)C (centres undefined) + CCCC
viscosity [mPa·s]
Conditions	x1 = 0.161	x1 = 0.162	x1 = 0.316	x1 = 0.319	x1 = 0.555	x1 = 0.559	x1 = 0.721	x1 = 0.724
293.15 K, 101 kPa	1.06	–	3	–	9.55	–	16.5	–
293.15 K, 101.33 kPa	1.06	–	3	–	9.55	–	16.5	–
313.15 K, 101 kPa	–	0.797	–	2.04	–	5.26	–	8.16
313.15 K, 101.33 kPa	–	0.797	–	2.04	–	5.26	–	8.16

O=P([O-])([O-])[O-].[Na+].[Na+].[Na+] + O
viscosity [mPa·s], 101 kPa
Conditions	x1 = 0.0018	x1 = 0.0054	x1 = 0.0089	x1 = 0.012	x1 = 0.016
298.15 K	0.9742	1.167	1.458	1.859	2.317
303.15 K	0.8777	1.054	1.31	1.67	2.131
308.15 K	0.7769	0.9282	1.146	1.444	1.868

Fc1ccccc1 + CC(=O)OCCC(C)C
viscosity [mPa·s], 101 kPa
Conditions	x2 = 0.0669	x2 = 0.1372	x2 = 0.2148	x2 = 0.2975	x2 = 0.3897	x2 = 0.4843	x2 = 0.5939	x2 = 0.713	x2 = 0.8486
303.15 K	0.541	0.565	0.591	0.613	0.637	0.661	0.682	0.706	0.727
313.15 K	0.48	0.501	0.524	0.543	0.561	0.579	0.597	0.613	0.629
